Test results as given in US20260284074A1, “ENT1 Inhibitors in Combination with Checkpoint Inhibitors” (iTeos Belgium SA, priority 2023, published 2026).

Key:
[1] = tested on: human T cells; assay: T cell proliferation by CFSE dilution in the presence of ATP; type: cell-based; settings: Homo sapiens, read-out: IC50, restoration of T cell proliferation
Protocol: Human T cells were activated in the presence of 100 μM ATP and dilazep or Compound 1 and proliferation was monitored by CarboxyFluoroscein Succinimidyl Ester (CFSE) dilution. […] (See FIG. 27B.)

[2] = tested on: human T cells; assay: CMV pp65 peptide-specific T cell expansion and antigen-specific killing with ATP; type: cell-based; settings: 300 μM ATP as a source of adenosine
Protocol: FIGS. 29A and 29B show the results of an experiment whereby human T cells were activated in the presence of 300 μM ATP and Compound 1, anti-PD-1, or Compound 1 and anti-PD-1.
Human T cells were activated in the presence of 300 μM ATP and Compound 1, anti-PD-1, or Compound 1 and anti-PD-1. CD8+ T cell population was monitored by tetramer-positive (Tet+) staining data. […] (See FIGS. 29A-29B).

[3] = tested on: human T cells; assay: [3H]adenosine uptake in activated human T cells; type: cell-based; settings: Homo sapiens, T-cell; T cells activated 2 days in presence of compound, washed, [3H]adenosine uptake; read-out: IC50, inhibition of uptake of adenosine into human T cells
Description: Applicant observed that activated human T cells took up [3H]adenosine, and this uptake was reduced in the presence of the selective ENT1 inhibitor dilazep, confirming that ENT1 is the dominant transporter involved in adenosine uptake in T cells.
Human T cells were activated for 2 days in the presence of Compound 1 or dilazep. The cells were then washed and used in a [^3H]adenosine uptake experiment. […] (See FIG. 27A.)

[4] = tested on: MDA-MB-231 cells; assay: MDA-MB-231 subcutaneous tumor model in humanized NCG mice; type: in vivo, mouse; settings: day 51; Compound 1 30 mg/kg i.p. twice a day; nivolumab 10 mg/kg i.p. every 5 days
Protocol: The anti-tumor therapeutic efficacy of Compound 1 monotherapy, nivolumab monotherapy, and Compound 1-nivolumab combination therapy was assessed in ‘humanized’ mice with subcutaneous tumors resulting from the subcutaneous injection of MDA-MB-231 cells, a human triple-negative breast cancer cell line.
Human cell line xenograft experiments were performed at Transcure (France) and all associated animal procedures were reviewed and approved by the local ethics committee. The experiment was carried out with the NOD-Prkdc^em26cd52Il2rg^em26cd22/NjuCrl immunodeficient mouse strain (NCG from Charles River Laboratories, Wilmington, MA, USA). Four-week-old immunodeficient NCG mice were engrafted with cord-blood-derived human CD34^+ hematopoietic stem and progenitor cells (French Blood Institute, Paris, France) 2 days after chemical myeloablative treatment. Fourteen weeks after cell injection, engraftment level was monitored with the analysis of human CD45^+ cells among total blood leukocytes by flow cytometry (Attune, Life Technologies/Thermo Fisher Scientific, Waltham, MA, USA). […]
All the animals used were monitored daily, checking their clinical signs of distress and body weight and tumors were measured three times a week using an electronic caliper. The tumor volume was determined by applying the formula Length×(Width)^2×0.5. […]

`COc1cc(C(=O)O[C@@H]2CCCOc3cc(cc(OC)c3OC)C(=O)NCCCN3CCCN(CC2)CC3)cc(OC)c1OC` [Compound 1, (12R)-7^4,7^5-dimethoxy-6-oxo-8-oxa-5-aza-1(1,4)-diazepana-7(1,3)-benzenacyclotetradecaphane-12-yl 3,4,5-trimethoxybenzoate] was tested, and the IC50 [1] was 0.06 nM, the Antigen-specific killing activity [2] was “restoration” and the “CMV pp65 peptide-specific T cell expansion” value ([2]; tetramer-positive CD8+ T cells) was “restores”. For the same molecule, the IC50 [3] was 0.2 nM and the “Tumor volume compared with vehicle group” value [4] was “not statistically significantly different”.
